Results from patent US20250041307A1, “Uses of Bicyclic Compounds for the Treatment of Diseases” (Athira Pharma, Inc., priority 2021, published 2025).

Columns and labels:
HGF/MET system = assay: Phospho-MET ELISA; format: cell-based; set-up: key: − indicates that the compound failed to significantly augment MET phosphorylation; + indicates maximum potency at or above 100 nM; ++ indicates maximum potency at or above 10 nM; +++ indicates maximum potency at or above 1 nM; ++++ indicates maximum potency at or above 0.1 nM; details: HEK293 cells; with 1 ng/mL recombinant HGF; 15 minutes; augmentation of MET phosphorylation (pMET ELISA)
Description: Compounds were screened for potency towards the HGF/MET system using phospho-MET (pMET) ELISA kits (Cell Signaling). pMET levels were detected in samples having low (1 ng/mL) and high (10 ng/mL) concentrations of HGF.
HEK293 cells were prepared by passage into 6-well multi-plates and grown at 37° C. at 5% CO2 in DMEM+10% FBS until approximately 90% confluent. Cells were then starved for at least 8 hours in serum-free growth media.
Exemplary compounds were prepared in DMEM+0.1% FBS, diluted and added to treatment media with 1 ng/mL recombinant HGF protein (R&D Systems). Cells were incubated in triplicate at 37° C. and 5% CO2 for 15 minutes. Samples were then treated with 180 μL ice-cold RIPA (radioimmunoprecipitation assay) buffer and cells were lysed on ice for 15 minutes. Lysates were cleared by centrifugation at 16,000-g for 15 minutes and the supernatant was retained. Samples were normalized using a BCA assay of lysates to determine protein concentrations across the samples.
Between 50 and 100 μg total protein lysate was loaded into ELISA wells in pMET Sandwich ELISA kit (Cell Signaling Catalog #7227C), ensuring equal protein load in each well. The ELISA was processed according to manufacturer's instructions. After color developed, absorbance was read on an optical plate reader at 450 nm.
Potency measurements were determined using peak efficacy by scaling test compound dose treatments along a scale of 1-10 between 1 ng/mL and 10 ng/mL HGF doses according to the following formula: […]
where y is the normalized data-point, x is the raw data point, A is the mean HGF at 1 ng/mL, and B is the mean HGF at 10 ng/mL.

MDCK cells = assay: Cell scattering behavior assay; format: cell-based; set-up: key: − indicates that the compound failed to significantly promote cell scattering behavior; + indicates maximum potency at or above 100 nM; ++ indicates maximum potency at or above 10 nM; +++ indicates maximum potency at or above 1 nM; ++++ indicates maximum potency at or above 0.1 nM; details: with 5 ng/mL HGF, 24 hours, normalized particle count compared to HGF treatment alone
Description: MDCK cells were grown under normal conditions and observed to spontaneously form tight colonies as they proliferate. MDCK cells respond to HGF treatment by moving away from each other (scattering), which is quantified to assess the amount of HGF/MET activation in the cell population. In this experiment, MDCK cells were plated in a 96-well format, treated with HGF and exemplary compounds, fluorescently stained, imaged in large fields, and scattering behavior was quantified. Quantification was determined by analyzing the number of continuous groups of cells compared to the total stained area imaged (normalized particle counts).
MDCK cells were plated at low density in black-walled imaging plates and allowed to attach overnight at 37° C. and 5% CO2 in DMEM+10% FBS. Cells were then starved to 2 hours in DMEM without FBS (“starve media”). Samples containing exemplary compounds were prepared in DMEM without FBS and included 5 ng/mL HGF protein (“treatment media”). A control curve was also prepared for each plate using HGF concentrations of 0, 5, 10, and 20 ng/mL. Starve media was replaced with treatment media and cells were incubated for 24 hours at 37° C. and 5% CO2.
After incubation, cells were fixed by replacing treatment media with cold ethanol and incubating for 20 minutes at 4° C. Cells were then rehydrated by washing with PBS and then with stain solution (fluorescent wheat germ agglutinin; WGA488 at 20 μg/mL in PBS). Cells were incubated with stain solution 30 minutes at room temperature after which stain solution was replaced with fresh PBS.
Fields of cells were imaged using an iCyte high content imager in the green wavelength. Images were converted to binary and analyzed for particle size and particle count. For the purpose of analysis, an individual cell touching no other cells or separated colonies of cells were identified as particles, and particle counts were normalized by the total signal area to account for differences in cell number. […] Compound potency was assessed by statistical increase in normalized particle count compared to HGF treatment alone.

[1] = Turbidimetric solubility assay; format: physicochemical; details: PBS (diluted from 10 mM DMSO stock), aqueous buffer, kinetic from dmso stock, 37° C. for 2 hours, dilution series 3 to 300 μM
Description: Aqueous solubility is a critical drug property that helps to predict bioavailability. Generally, compounds with aqueous solubility <100 μg/ml are poor drugs.
To assess a compound's solubility by turbidity, test compounds were first dissolved in organic solvent (DMSO) at a concentration of 10 mM. This compound solution was then diluted in aqueous solvent (PBS) in a dilution series from 3 to 300 μM in a 96-well assay plate. Solutions were incubated at 37° C. for 2 hours.
In wells with test compounds over their solubility limit, the compound will precipitate, effectively blocking the passage of light and thus increasing the absorbance signal of UV light at a wavelength of 620 nm. Compounds were considered insoluble at a tested concentration if turbidity raises the absorbance more than 10% above control reads.

[2] = Parallel artificial membrane permeability assay (PAMPA); format: in vitro ADME; details: PBS, room temperature for 5 hours, 200 uM in donor well
Description: Bioavailable drugs must permeate the cellular membranes of the lining of the digestive tract. To estimate the penetrability of exemplary compounds, the in vitro parallel artificial membrane permeability assay (PAMPA) was utilized.
Test compounds must have a standard curve in the final read plate to determine partitioned concentration of each drug. A 6-point standard curve was prepared for each compound from 0 to 200 μM in phosphate-buffered saline (PBS).
Test compound solution (300 μL in PBS) was added to the donor (bottom) well of the PAMPA plate in 5 replicates and PBS vehicle (200 μL) was added to the acceptor (top) wells of appropriate wells to match the loading of the donor plate. The bottom and top of the PAMPA plates were then sandwiched together. The PAMPA plates were then incubated at room temperature for 5 hours. After incubation, 150 μL of donor solution was added to a UV compatible plate containing the corresponding standard curve. 150 μL of acceptor well solution was added adjacent to the corresponding standard curve and donor well samples for that compound. The plate was then read using a UV plate reader.
Permeability and membrane retention were then calculated based on the following formulas:
where: • A=filter area (0.3 cm^2); • VD=donor well volume (0.3 mL); • VA=acceptor well volume (0.2 mL); • t=incubation time (seconds); • CA(t)=compound concentration in acceptor well at time t; • CD(t)=compound concentration in donor well at time t; and
where: • CD(t), VD, CA(t), and VA are as defined for equation 1, and • C0=initial concentration in donor well (200 uM).

[3] = tested on: hepatocyte (HepG2) cell cultures; assay: Cytotoxicity assay (LDH release); format: cell-based; details: HepG2 cells, 48 hours, 0.1 to 100 μM
Description: This experiment was designed to obtain a preliminary assessment of cytotoxicity.
HepG2 cells were plated in 96-well cell culture plates and allowed to attach overnight at 37° C., 5% CO2 in EMEM+10% FBS. Treatments were made in complete media (EMEM+10% FBS) and included a dilution series of test compounds from 0.1 to 100 μM. Known cytotoxin cerivastatin was used as a positive assay control and prepared at a final concentration of 0.5 μM.
Growth media was replaced with treatment media (EMEM+10% FBS containing test compound dissolved in DMSO) and cells were incubated with test compounds for 48 hours. At the end of the incubation period, supernatant media from each well was transferred to a new plate and LDH assay working solution was added. LDH assay solution undergoes a colorimetric reaction in proportion to the amount of lactate dehydrogenase (an intracellular protein that was only found in the media in the presence of lysed cells) in the media. Color reaction was quantified by measurement of absorbance at a wavelength of 490 nm.
The signal range of the assay was determined by no manipulation in a negative control treatment and full lysis of all cells in a lysis control sample. Compounds that increase the level of cytotoxicity more than 20% above negative control samples were considered cytotoxic in this assay.

[4] = In vitro stability in simulated gastric and intestinal fluids; format: in vitro ADME; details: 37° C.
Description: (§1) Bioavailability can be estimated by compound stability when exposed to conditions in the body. As an initial assessment of stability properties in a variety of conditions present in animals, exemplary compounds were tested for stability in a battery of simulated body compartments. Compounds were tested for stability in the following solutions: simulated gastric fluid (SGF: 34.2 mM NaCl, pH 1.2), simulated gastric fluid with the digestive enzyme pepsin (SGF+Enzyme: SGF with 3.2 mg/ml pepsin), simulated intestinal fluid with the mixture of enzymes in porcine pancreatin (SIF+Enzyme: 28.7 mM NaH2PO4, 105.7 mM NaCl, pH 6.8, 10 mg/ml pancreatin), rat plasma, and human plasma.
(§2) Test compounds were incubated at a final concentration of 5 μM in the above solutions at 37° C. with samples removed at the following time points: 0, 1, 2, and 4 hours. Reactions were stopped and prepared for quantification by addition of excess quench solution containing an internal standard (acetonitrile, 200 ng/mL bucetin). Test compound and internal standard in each sample was quantified by LC-MS/MS, and after internal normalization to bucetin, test compound concentration was expressed as a percentage of concentration at the 0-hour time point. Stability in the relevant test solution was then determined by the percent remaining at the 4-hour time point.

[5] = In vitro stability in rat plasma; format: in vitro ADME; details: 5 μM, 37° C.
Description: as §1, §2

[6] = In vitro stability in human plasma; format: in vitro ADME; details: 5 μM, 37° C.
Description: as §1, §2

[7] = In vivo tissue distribution; set-up: species or system Sprague-dawley rats; details: rat, 10 minutes post administration
Description: The rate of distribution to target tissues is an important feature of therapeutic molecules. Tissue distribution of exemplary compounds was performed in mixed-sex Sprague-dawley rats. Test compounds were delivered via tail vein injection (IV) and tissues were collected at Tmax (10 minutes post administration). Animals were deeply anesthetized with isoflurane and whole blood was collected from the right atrium and processed by centrifugation to produce plasma. Animals were then fully perfused with PBS administered to the left ventricle to prevent blood contamination of tissues.
Tissues were collected and homogenized, and compound content in the target tissue was quantified by LC-MS/MS. Tissue distribution rates were determined by dividing the tissue concentration of compound by the plasma concentration and multiplying by 100.

solubility at 2 h [1] [µM] | Papp at 5 h, 200 uM [2] [nm/s] | SMILES | Potency (HGF/MET system) | Potency (MDCK cells) | Cytotoxicity [3] | also measured
 | > 20 | CC1C(=O)N(CC2CCC2)CC2N(C(=O)c3ccc(OC(F)F)cc3)CCC(=O)N12 (centres unmarked) [Compound 14] | ++++ (++++ indicates maximum potency at or above 0.1 nM) |  | ++++ (++++ indicates non-toxic at 100 μM) | SGF, compound remaining after 4 hours ([4]; simulated gastric fluid pH 1.2, 5 μM): ++ (++ indicates 40-79% compound remaining after 4 hours); SGF + Enz, compound remaining after 4 hours ([4]; simulated gastric fluid with 3.2 mg/ml pepsin, 5 μM): ++ (++ indicates 40-79% compound remaining after 4 hours); SIF, compound remaining after 4 hours ([4]; simulated intestinal fluid pH 6.8 with 10 mg/ml pancreatin, 5 μM): +++ (+++ indicates 80-99% compound remaining after 4 hours); Rat Plasma, compound remaining after 4 hours [5]: +++ (+++ indicates 80-99% compound remaining after 4 hours); Human Plasma, compound remaining after 4 hours [6]: +++ (+++ indicates 80-99% compound remaining after 4 hours); Tissue Distribution (% Plasma exposure at 10 min post IV dose) Brain ([7]; brain): ++ (++ indicates distribution between 5 and 39%); Tissue Distribution (% Plasma exposure at 10 min post IV dose) Cerebellum ([7]; cerebellum): ++ (++ indicates distribution between 5 and 39%); Tissue Distribution (% Plasma exposure at 10 min post IV dose) Cortex ([7]; cortex): ++ (++ indicates distribution between 5 and 39%); Tissue Distribution (% Plasma exposure at 10 min post IV dose) Hippocampus ([7]; hippocampus): ++ (++ indicates distribution between 5 and 39%); Tissue Distribution (% Plasma exposure at 10 min post IV dose) Sciatic Nerve ([7]; sciatic nerve): ++ (++ indicates distribution between 5 and 39%)
> 300 |  | CC1C(=O)N(CCCC(F)(F)F)CC2N(Cc3ccc(OC(F)F)cc3)CCC(=O)N12 (centres unmarked) [Compound 37] | − |  |  | 
> 100 |  | CC1C(=O)N(CCC(F)(F)F)CC2N(Cc3ccc(OC(F)F)cc3)CCC(=O)N12 (centres unmarked) [Compound 52] | − |  |  | 

The next lines start with the compound.

SMILES | solubility at 2 h [1] [µM] | Papp at 5 h, 200 uM [2] [nm/s] | Potency (HGF/MET system) | Potency (MDCK cells) | Cytotoxicity [3] | also measured
CCC(C)CN1CC2N(Cc3ccc(O)cc3)CCC(=O)N2[C@@H](C)C1=O (some centres unmarked) [Compound 3a] | > 300 | < 20 | − | − |  | 
CCC(C)CN1CC2N(Cc3ccc(OC(F)F)cc3)CCC(=O)N2C(CC(C)C)C1=O (centres unmarked) [Compound 53, 1-(4-(difluoromethoxy)benzyl)-6-isobutyl-8-(2-methylbutyl)hexahydro-4H-pyrazino[1,2-a]pyrimidine-4,7(6H)-dione] |  | < 20 | ++ (++ indicates maximum potency at or above 10 nM) | +++ (+++ indicates maximum potency at or above 1 nM) | +++ (+++ indicates non-toxic at 10 μM) | 
CC1C(=O)N(CCC2CCCC2)CC2N(Cc3ccc(C(F)(F)F)c(Cl)c3)CCC(=O)N12 (centres unmarked) [Compound 54] |  | < 20 | − | − | +++ (+++ indicates non-toxic at 10 μM) | 
